According to ChEMBL document CHEMBL3822369, “Structure-Based Design of an in Vivo Active Selective BRD9 Inhibitor” (J Med Chem, 2016):

Key:
[1] = Oral bioavailability in BomTac:NMRI-Foxn1nu mouse at 20 mg/kg, administered as suspension; format: ADME, organism-based; settings: in vivo
[2] = Apparent permeability in human Caco2 cells across apical side to basolateral side at 10 uM by LC-MS/MS analysis; format: ADME, cell-based; settings: Caco-2
Mus musculus [3] = assay: Clearance in BomTac:NMRI-Foxn1nu mouse plasma at 5 mg/kg, iv administered as bolus; format: ADME, organism-based; settings: in vivo
[4] = AUC (0 to last) in BomTac:NMRI-Foxn1nu mouse at 20 mg/kg, po administered as suspension; format: ADME, organism-based; parameters: dose 20 mg/kg, time 0 - last, route oral; settings: in vivo
Mus musculus [5] = assay: AUC (0 to last) in plasma of CIEA-NOG mouse xenografted with human EOL-1 cells at 180 mg/kg, po administered qd for day 5 to 17 and day 20 to 22 post tumor transplantation; format: ADME, organism-based, EOL1; parameters: dose 180 mg/kg, time 0 - last, route oral; settings: in vivo
[6] = Cmax in BomTac:NMRI-Foxn1nu mouse at 20 mg/kg, po administered as suspension; format: ADME, organism-based; parameters: dose 20 mg/kg, route oral; settings: in vivo
[7] = Cmax in BomTac:NMRI-Foxn1nu mouse at 180 mg/kg, po administered as suspension; format: ADME, organism-based; parameters: dose 180 mg/kg, route oral; settings: in vivo
[8] = AUC (0 to last) in BomTac:NMRI-Foxn1nu mouse at 180 mg/kg, po administered as suspension; format: ADME, organism-based; parameters: dose 180 mg/kg, time 0 - last, route oral; settings: in vivo
[9] = Aqueous solubility of the compound at pH 6.8 by UPLC/UV method; format: physicochemical; settings: buffer
Mus musculus [10] = assay: (§1) Oral bioavailability in BomTac:NMRI-Foxn1nu mouse at 180 mg/kg, administered as suspension; format: ADME, organism-based; settings: in vivo
[11] = Volume of distribution at steady state in BomTac:NMRI-Foxn1nu mouse plasma at 5 mg/kg, iv administered as bolus; format: ADME, organism-based; settings: read-out: Vdss
[12] = as §1; format: ADME, organism-based; settings: BomTac:NMRI-Foxn1nu, in vivo

Row | bioavailability [1] | Papp A→B at 10 µM [2] | CL (Mus musculus [3]) | AUC(0-t) [4] | AUClast (Mus musculus [5]) | Cmax [6] | Cmax [7] | AUC(0-t) [8] | solubility [9] | F (Mus musculus [10]) | Vd [11] | bioavailability [12] | SMILES
1 | 88% | 11 ×10⁻⁶ cm/s | 65% | 15 µM·h | 268 µM·h | 5.4 µM | 35 µM | 226 µM·h | > 90 µg/mL | 151% | 2.1 L/kg | – | COc1cc(-c2cn(C)c(=O)c3cnccc23)c(OC)cc1CN(C)C
2 | 39% | 1.4 ×10⁻⁶ cm/s | 57% | 7.5 µM·h | – | 3 µM | 25 µM | 108 µM·h | > 91 µg/mL | – | 1.6 L/kg | 64% | COc1cc(-c2cn(C)c(=O)c3cnccc23)cc(OC)c1CN(C)C
